Tests used:
CHO K1 cells = assay: Cytotoxicity dose-response (MTS cell viability) in CHO K1 cells; assay type: cell-based, Chinese hamster
Procedure: CHO K1 Studies. Wild type Chinese hamster ovary (CHO K1) cells were chosen to first study the synthetic compounds' impact on polyamine metabolism. The CHO K1 cell line has high polyamine transport activity and was useful in screening compounds for their polyamine transport inhibitor activity. A dose-response curve was obtained for each compound to determine their toxicity in CHO K1 cells after 48 h incubation. Compound 9 (1666.177) was non-toxic up to the highest dose tested (15 μM).
Regarding the biological studies performed in the following examples, it is noted that CHO K1, CHO-MG, and L3.6pl cells were grown in RPMI 1640 medium supplemented with 10% fetal bovine serum (FBS) and 1% penicillin/streptomycin. All cells were grown at 37° C. under a humidified 5% CO2 atmosphere. Aminoguanidine (1 mM used for CHO K1 and CHOMG cells and 250 μM for L3.6pl) was added to the growth medium to prevent oxidation of the compounds of the bovine serum amine oxidase enzyme that is present in calf serum. The cells used were in early to mid log phase and CHO and CHOMG were plated out at 1000 cells/well, whereas the L3.6pl cells were plated at 500 cells/well in a 96 well plate format.
This example illustrates aspects according to various embodiments pertaining to IC50 determinations and cell viability studies. Cell growth was assayed in sterile 96-well microtiter plates (Costar 3599, Corning, N.Y.). CHO K1 or CHOMG cells were plated at 1,000 cells/70 μL and L3.6pl cells at 500 cells/70 μL. The drug solutions of appropriate concentration in phosphate buffered saline (PBS) were added 10 μL per well after overnight incubation. After drug exposure (e.g., for 48 h for CHO K1 and CHO-MG and 48 h or 72 h for L3.6pl), cell growth was determined by measuring formazan formation from the 3-(4,5dimethylthiazol-2-yl)-5-(3-carboxymethoxyphenyl)-2-(4-sulfenyl)-2H tetrazolium, inner salt (MTS) using SynergyMx Biotek microplate reader for absorbance (490 nm) measurements.^27 All experiments were run in triplicate.

L3.6pl cells = assay: Intracellular polyamine and Ant-44 levels (N-dansylation, HPLC) in L3.6pl cells; assay type: cell-based, human; conditions: for Intracellular Putrescine / Intracellular Spermidine / Intracellular Spermine / Intracellular Total Polyamines: 72 hr
Procedure: One explanation for the enhanced potency was that compound 10 (1666.255) increased polyamine import and, as a result, may have increased intracellular Ant-44 levels. To test this hypothesis, L3.6pl cells were dosed with a fixed concentration of Ant-44 (2 μM) alone and in combination with increasing concentrations of compound 10 (1666.255) to explore how this combination therapy affected intracellular polyamine pools and Ant-44 import.
FIG. 7 is an example according to various embodiments, illustrating both single and combination therapies in L3.6pl cells with Ant-44 and compound 10 (1666.255) after 72 h incubation. Polyamine and Ant-44 levels (expressed as nmoles/mg protein) and relative % viability versus an untreated control were observed after 72 h incubation at 37° C. The untreated control was run in parallel and polyamine levels determined in duplicate and % cell viability in triplicate. Ant-44 was dosed at a fixed concentration of 2 μM and compound 10 (1666.255) at increasing concentrations. Cell viability tracked well with total intracellular polyamine levels (sum of putrescine, spermidine and spermine).
It was concluded that compound 10 was neither acting as a PTI nor as a polyamine import agonist. How then could it lead to intracellular polyamine depletion? […] To test this hypothesis, L3.6pl cells were dosed with increasing concentrations of compound 10 (1666.255) without Ant44. If compound 10 (1666.255) was acting on polyamine pools, one should see a reduction in total polyamine levels as well as decreased cell viability in a dose dependent manner upon increasing levels of 10. Therefore, the toxicity of compound 10 and intracellular polyamine levels after 72 h exposure to 10 were measured (FIG. 8).
FIG. 8 is an example according to various embodiments, illustrating intracellular polyamine levels (expressed as nmoles polyamine/mg protein) in L3.6pl cells dosed with increasing concentrations of compound 10 (1666.255) after cells were incubated for 72 h at 37° C. The untreated control was run in parallel and polyamine levels determined in duplicate via N-dansylation and HPLC. The data was averaged and reported as nmol polyamine (PA)/mg protein.
This example illustrates aspects according to various embodiments pertaining to a 72 h experiment with Compound 10 in L3.6pl cells. Ten milliliters of a cell suspension containing L3.6pl human pancreatic cancer cells (50,000 cells/mL) and aminoguanidine (1 mM) were placed in treated plastic Petri dishes (d=9 cm) and incubated overnight at 37° C. After 24 h, the cells were dosed with compound 10 at 2 μM, 5 μM, or 7 μM. (Note: Stock solutions of 10 at 2, 5, and 7 mM were dissolved in phosphate buffered saline (PBS) and were filtered through a 0.2 μm filter prior to use. The experiments were maintained with a total volume of 10.01 mL where 10 mL of the cell suspension was placed in a plastic dish and each compound or the equivalent PBS volume was added to make up the total volume 10.01 mL for each dish. For example, for the control experiment PBS (10 μL) was added to make up the total volume (10 mL+10 μL=10.01 mL). After 72 h incubation, the cells were collected first by pipetting off the supernatant containing floating dead cells from the culture dish as well as media and placing them into 15 mL tubes. The supernatant containing floating cells was centrifuged (4 min at 1,000 rpm). The cell-free supernatant (supernatant #1) was collected into a new 15 mL tube and quantified (˜8.6 mL) and was then stored frozen and was later quantified by LCMS to investigate the media composition of particular polyamine and amino acid analytes. The attached cells on the dish were washed with PBS (5 mL). The PBS wash was removed by suction and additional PBS (2 mL) was added and again suctioned off to provide twice-washed cells still adhered to the dish. Trypsin (2 mL) was then added to each dish and incubated (3-5 min) until all the cells were detached. Fresh media (8 mL) was added to quench the trypsin. […]

For `CC(C)CCN1CCN(C(CNCc2ccccc2)CC2CCCCC2)CC1CC(C)C.Cl.Cl.Cl` (stereo not drawn) [Compound 10, Benzyl-{3-cyclohexyl-2-[3-isobutyl-4-(3-methyl-butyl)-piperazin-1-yl]-propyl}-amine trihydrochloride salt], the “toxicity of compound alone” value (CHO K1 cells; CHO K1, highest concentration tested (5 μM), 48 h) was “nontoxic”, the IC50 (CHO K1 cells; Cricetulus griseus, CHO K1 cells, 48 h incubation) was 10.8 ± 0.22 µM and the “Intracellular Putrescine” value (L3.6pl cells; 2 μM) was 6.2 ± 0.7 nmol polyamine/mg protein. For the same compound, the “Intracellular Spermidine” value (L3.6pl cells; 2 μM) was 27.1 ± 2.4 nmol polyamine/mg protein, the “Intracellular Spermine” value (L3.6pl cells; 2 μM) was 16.1 ± 0.0 nmol polyamine/mg protein and the “Intracellular Total Polyamines” value (L3.6pl cells; 2 μM) was 49.5 ± 3.1 nmol polyamine/mg protein. The “Intracellular Putrescine” value (L3.6pl cells; 5 μM) was 6.0 ± 0.9 nmol polyamine/mg protein, the “Intracellular Spermidine” value (L3.6pl cells; 5 μM) was 17.6 ± 1.8 nmol polyamine/mg protein and the “Intracellular Spermine” value (L3.6pl cells; 5 μM) was 14.9 ± 1.1 nmol polyamine/mg protein. The “Intracellular Total Polyamines” value (L3.6pl cells; 5 μM) was 38.5 ± 3.4 nmol polyamine/mg protein, the “Intracellular Putrescine” value (L3.6pl cells; 7 μM) was 5.9 ± 0.3 nmol polyamine/mg protein and the “Intracellular Spermidine” value (L3.6pl cells; 7 μM) was 15.6 ± 0.1 nmol polyamine/mg protein. For the same compound, the “Intracellular Spermine” value (L3.6pl cells; 7 μM) was 12.7 ± 0.6 nmol polyamine/mg protein, the “Intracellular Total Polyamines” value (L3.6pl cells; 7 μM) was 34.2 ± 0.9 nmol polyamine/mg protein and the “intracellular level of Ant-44” value (L3.6pl cells; Ant-44 2 μM with compound 10 at 1 μM, 72 h) was 2.08 nmol Ant44/mg protein.

From patent publication US20210317090A1, “AMINO ACID DEPLETION AGENTS AS ANTIPROLIFERATIVE AGENTS” (University of Central Florida Research Foundation, Inc., priority 2018, published 2021)
